Data on one compound can be found in patent publication US7727736B2, “Soluble phospholipids for use in clotting factor assays” (The University of North Carolina at Chapel Hill, priority 2003, dated 2010).

Assay [1] addresses T1, FXa (Homo sapiens, UniProt P00742). Put plainly: Influence of DAPA on FXa activity in prothrombin activation. More on the design: Human prothrombin and factor Xa; purchased Hematologic Technologies Inc. (factor Xa); factor Va from human plasma, in house. The assay is classed as biochemical. The settings on record: in the presence of C6PS, concentration of DAPA used herein. On the procedure:
Despite this, it has been shown that it provides rates of prothrombin activation in the presence of PS/PC membranes equivalent to those detected by activity measurements (Wu, et al. (2002) supra; Weinreb, et al. (2003) supra). To test whether DAPA influenced the activity of FXa in the presence of C6PS, the expected DAPA fluorescence was calculated based on the rate of appearance of thrombin and MzIIa, as detected by synthetic substrate assay as recorded in FIG. 6A. This calculation has been described (Wu, et al. (2002) supra) and its results, as applied to the data herein, are shown in the inset to FIG. 6A (filled circles) along with an experimental time-course of DAPA fluorescence change (open diamonds) reflecting prothrombin activation. Similar results were obtained at the other prothrombin concentrations examined.

Assay [2] has as its target T1, FXa. Details: Human prothrombin and factor Xa; purchased Hematologic Technologies Inc. (factor Xa); factor Va from human plasma, in house. The following applies: Nesheim et al. (1979); cited from earlier work.

T1 sequence (P00742 41-179 limits assumed): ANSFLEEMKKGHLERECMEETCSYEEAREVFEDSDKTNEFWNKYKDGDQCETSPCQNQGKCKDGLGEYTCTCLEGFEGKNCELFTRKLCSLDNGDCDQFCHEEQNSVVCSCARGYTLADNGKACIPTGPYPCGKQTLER
T1 sequence (P00742 235-488 limits assumed): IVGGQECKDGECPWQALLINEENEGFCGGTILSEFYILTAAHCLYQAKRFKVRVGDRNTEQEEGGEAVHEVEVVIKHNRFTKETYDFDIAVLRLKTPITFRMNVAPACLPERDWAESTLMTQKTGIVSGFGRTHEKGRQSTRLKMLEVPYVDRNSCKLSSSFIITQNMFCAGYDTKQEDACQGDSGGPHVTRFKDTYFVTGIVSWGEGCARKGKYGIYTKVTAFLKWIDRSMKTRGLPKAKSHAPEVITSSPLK
T1 sequence (P12259 29-737 partner limits assumed): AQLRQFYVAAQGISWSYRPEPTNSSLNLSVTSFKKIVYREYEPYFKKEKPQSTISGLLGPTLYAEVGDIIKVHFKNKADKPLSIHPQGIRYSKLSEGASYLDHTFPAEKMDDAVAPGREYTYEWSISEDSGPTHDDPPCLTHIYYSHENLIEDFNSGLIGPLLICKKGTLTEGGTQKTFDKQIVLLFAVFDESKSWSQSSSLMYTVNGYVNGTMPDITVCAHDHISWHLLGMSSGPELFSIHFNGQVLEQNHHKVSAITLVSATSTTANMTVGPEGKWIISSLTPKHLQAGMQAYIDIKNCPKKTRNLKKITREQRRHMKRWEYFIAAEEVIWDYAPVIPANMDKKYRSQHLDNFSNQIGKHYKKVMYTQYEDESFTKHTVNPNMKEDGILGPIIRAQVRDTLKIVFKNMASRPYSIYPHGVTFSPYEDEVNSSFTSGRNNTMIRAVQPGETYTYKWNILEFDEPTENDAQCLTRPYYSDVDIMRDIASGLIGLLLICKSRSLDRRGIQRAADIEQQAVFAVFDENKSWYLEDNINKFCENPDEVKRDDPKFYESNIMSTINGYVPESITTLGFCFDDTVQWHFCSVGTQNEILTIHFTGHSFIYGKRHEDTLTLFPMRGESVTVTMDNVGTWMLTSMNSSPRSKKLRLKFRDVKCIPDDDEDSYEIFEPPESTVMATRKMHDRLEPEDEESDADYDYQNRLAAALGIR
T1 sequence (P12259 1574-2224 partner limits assumed): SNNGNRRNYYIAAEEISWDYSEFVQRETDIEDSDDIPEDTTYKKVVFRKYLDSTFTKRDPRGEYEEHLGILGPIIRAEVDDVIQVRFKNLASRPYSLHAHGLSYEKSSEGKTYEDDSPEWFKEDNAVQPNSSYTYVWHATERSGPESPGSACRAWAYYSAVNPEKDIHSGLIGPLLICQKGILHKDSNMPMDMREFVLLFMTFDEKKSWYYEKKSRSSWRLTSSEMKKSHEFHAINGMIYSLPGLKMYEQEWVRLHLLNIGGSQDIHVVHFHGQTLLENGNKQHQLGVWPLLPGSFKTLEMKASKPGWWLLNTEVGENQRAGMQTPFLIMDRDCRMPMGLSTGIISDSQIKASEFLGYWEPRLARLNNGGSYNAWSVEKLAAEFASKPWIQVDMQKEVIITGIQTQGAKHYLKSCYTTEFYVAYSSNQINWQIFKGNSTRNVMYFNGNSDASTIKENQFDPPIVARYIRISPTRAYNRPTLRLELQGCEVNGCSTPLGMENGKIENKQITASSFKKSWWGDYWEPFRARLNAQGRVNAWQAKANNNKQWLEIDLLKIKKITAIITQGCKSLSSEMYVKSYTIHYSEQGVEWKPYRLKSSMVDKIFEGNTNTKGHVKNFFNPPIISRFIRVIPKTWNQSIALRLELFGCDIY

Regarding `CCC1CCN(C(=O)C(CCCN=C(N)N)NS(=O)(=O)c2cccc3c(N(C)C)cccc23)CC1` (centres unmarked) [DAPA, dansylarginine-N-(3-ethyl-1,5-pentanediyl) amide], the “influence of DAPA on FXa activity” value at FXa [1] is “does not influence FXa activity to a measurable extent”. In addition, the “inhibition of FXa by DAPA” value on FXa [2] is “weak competitive inhibitor”.
